The structures appear in SMILES notation.

The values that follow come from ChEMBL document CHEMBL5696442, “Discovery of type II inhibitors of TGFβ-activated kinase 1 (TAK1) and mitogen-activated protein kinase kinase kinase kinase 2 (MAP4K2)” (J Med Chem, 2015).

Experiment [1] concerns Epidermal growth factor receptor (Homo sapiens), P00533 [G719C]. Kind of experiment: Inhibition of EGFR G719C mutant (unknown origin) at 1 uM by Ambit Kinomescan binding assay relative to control.
The target of experiment [2] is T1, Serine/threonine-protein kinase TAO1 (Homo sapiens) (UniProt Q7L7X3).
T1 sequence (whole entry): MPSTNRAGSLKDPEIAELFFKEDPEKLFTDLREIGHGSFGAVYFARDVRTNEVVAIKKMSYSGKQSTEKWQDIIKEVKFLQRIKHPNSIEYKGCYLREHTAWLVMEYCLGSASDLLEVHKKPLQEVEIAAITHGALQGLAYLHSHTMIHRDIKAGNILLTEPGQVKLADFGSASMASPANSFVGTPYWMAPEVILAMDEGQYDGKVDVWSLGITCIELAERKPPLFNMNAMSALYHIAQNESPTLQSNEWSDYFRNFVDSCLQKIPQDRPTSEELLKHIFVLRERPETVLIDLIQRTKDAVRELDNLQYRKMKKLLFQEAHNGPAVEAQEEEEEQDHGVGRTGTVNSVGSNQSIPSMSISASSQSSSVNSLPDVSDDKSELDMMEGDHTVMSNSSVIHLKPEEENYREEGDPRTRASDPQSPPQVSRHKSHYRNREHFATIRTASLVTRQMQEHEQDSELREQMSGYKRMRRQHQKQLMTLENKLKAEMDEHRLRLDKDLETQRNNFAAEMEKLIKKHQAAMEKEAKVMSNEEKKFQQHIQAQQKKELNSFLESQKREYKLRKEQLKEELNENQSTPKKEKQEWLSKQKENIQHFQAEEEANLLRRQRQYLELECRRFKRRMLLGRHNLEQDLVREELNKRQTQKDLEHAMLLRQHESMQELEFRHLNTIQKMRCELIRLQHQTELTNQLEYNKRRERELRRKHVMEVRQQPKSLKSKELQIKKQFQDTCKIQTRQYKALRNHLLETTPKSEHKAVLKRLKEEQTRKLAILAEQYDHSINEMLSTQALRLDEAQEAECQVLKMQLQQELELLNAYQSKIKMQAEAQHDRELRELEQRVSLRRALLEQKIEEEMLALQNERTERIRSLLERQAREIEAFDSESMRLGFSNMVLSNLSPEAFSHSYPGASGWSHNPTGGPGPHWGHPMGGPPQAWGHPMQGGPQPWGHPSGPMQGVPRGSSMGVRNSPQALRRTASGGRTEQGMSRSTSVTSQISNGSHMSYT
Kind of experiment: Inhibition of TAOK1 (unknown origin) at 1 uM by Ambit Kinomescan binding assay relative to control.

Experiment [3] concerns the target T2, Receptor-interacting serine/threonine-protein kinase 4 (Homo sapiens) (UniProt P57078).
T2 sequence (whole entry): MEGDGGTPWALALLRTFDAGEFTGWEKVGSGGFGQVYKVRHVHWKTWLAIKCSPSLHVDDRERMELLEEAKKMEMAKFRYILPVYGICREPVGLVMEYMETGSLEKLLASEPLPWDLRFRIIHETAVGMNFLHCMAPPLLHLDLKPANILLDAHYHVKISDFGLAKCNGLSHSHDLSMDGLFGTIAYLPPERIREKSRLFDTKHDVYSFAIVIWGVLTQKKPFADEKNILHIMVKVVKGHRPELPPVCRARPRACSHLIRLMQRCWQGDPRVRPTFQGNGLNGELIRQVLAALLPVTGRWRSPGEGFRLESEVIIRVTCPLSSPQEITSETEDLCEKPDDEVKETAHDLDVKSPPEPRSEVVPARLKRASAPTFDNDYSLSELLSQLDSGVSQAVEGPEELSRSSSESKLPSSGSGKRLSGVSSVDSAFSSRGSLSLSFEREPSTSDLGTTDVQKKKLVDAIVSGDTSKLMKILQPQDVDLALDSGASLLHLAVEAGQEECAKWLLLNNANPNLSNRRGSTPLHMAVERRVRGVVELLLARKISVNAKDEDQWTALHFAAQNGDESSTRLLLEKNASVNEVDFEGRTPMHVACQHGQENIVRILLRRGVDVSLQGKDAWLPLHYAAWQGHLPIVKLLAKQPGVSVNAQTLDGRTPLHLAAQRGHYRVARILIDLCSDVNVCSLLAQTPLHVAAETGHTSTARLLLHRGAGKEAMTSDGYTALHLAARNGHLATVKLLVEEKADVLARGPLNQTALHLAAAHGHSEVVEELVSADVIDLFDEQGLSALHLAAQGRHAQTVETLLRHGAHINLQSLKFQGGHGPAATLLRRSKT
Kind of experiment: Inhibition of ANKRD3 Lys1 labeling site in human A-375 cells at 0.5 uM by KiNativ Profiling analysis relative to control. The experiment is classed as cell-based.

In experiment [4] the target is Dual specificity mitogen-activated protein kinase kinase 2 (Homo sapiens) (UniProt P36507). Kind of experiment: Inhibition of MEK2 (unknown origin) at 1 uM by Ambit Kinomescan binding assay relative to control; values are per cent of control.
The target in experiment [5] is Cyclin-dependent kinase-like 3 (Homo sapiens) (UniProt Q8IVW4). Kind of experiment: Inhibition of CDKL3 (unknown origin) at 1 uM by Ambit Kinomescan binding assay relative to control; values are per cent of control.
For experiment [6], the target named is Homeodomain-interacting protein kinase 4 (Homo sapiens) (UniProt Q8NE63). Kind of experiment: Inhibition of HIPK4 (unknown origin) at 1 uM by Ambit Kinomescan binding assay relative to control; values are per cent of control.
The target in experiment [7] is T3, Dual specificity mitogen-activated protein kinase kinase 6 (Homo sapiens) (UniProt P52564).
T3 sequence (whole entry): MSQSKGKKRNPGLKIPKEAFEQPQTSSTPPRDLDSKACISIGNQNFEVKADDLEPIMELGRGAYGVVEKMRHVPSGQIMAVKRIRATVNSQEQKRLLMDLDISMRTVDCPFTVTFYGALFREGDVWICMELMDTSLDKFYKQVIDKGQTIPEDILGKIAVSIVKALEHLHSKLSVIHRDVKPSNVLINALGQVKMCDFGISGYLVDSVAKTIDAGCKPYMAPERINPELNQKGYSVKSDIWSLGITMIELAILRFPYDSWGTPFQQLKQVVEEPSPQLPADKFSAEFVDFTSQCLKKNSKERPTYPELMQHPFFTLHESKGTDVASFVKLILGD
Kind of experiment: Inhibition of MAP2K6 Lys1 labeling site in human A-375 cells at 0.05 uM by KiNativ Profiling analysis relative to control. The format is cell-based.

In experiment [8] the target is Tyrosine-protein kinase ABL (Homo sapiens) (UniProt P00519+P42684). Kind of experiment: Inhibition of ABL1/2 K1 labeling site in human Huh-7 cells at 10 uM by KiNativ Profiling analysis relative to control. The format is cell-based.
Experiment [9] concerns the target Dual specificity mitogen-activated protein kinase kinase; MEK1/2 (Homo sapiens) (UniProt P36507+Q02750). Kind of experiment: Inhibition of MAP2K1/2 K2 labeling site in human Huh-7 cells at 10 uM by KiNativ Profiling analysis relative to control. The format is cell-based.
Experiment [10] concerns the target Mitogen-activated protein kinase 14 (Homo sapiens, UniProt Q16539). Kind of experiment: Inhibition of p38alpha (unknown origin) at 10 uM by Ambit Kinomescan binding assay relative to control; values are per cent of control.

Dual specificity mitogen-activated protein kinase kinase 2 (Homo sapiens), sequence (P36507 whole entry): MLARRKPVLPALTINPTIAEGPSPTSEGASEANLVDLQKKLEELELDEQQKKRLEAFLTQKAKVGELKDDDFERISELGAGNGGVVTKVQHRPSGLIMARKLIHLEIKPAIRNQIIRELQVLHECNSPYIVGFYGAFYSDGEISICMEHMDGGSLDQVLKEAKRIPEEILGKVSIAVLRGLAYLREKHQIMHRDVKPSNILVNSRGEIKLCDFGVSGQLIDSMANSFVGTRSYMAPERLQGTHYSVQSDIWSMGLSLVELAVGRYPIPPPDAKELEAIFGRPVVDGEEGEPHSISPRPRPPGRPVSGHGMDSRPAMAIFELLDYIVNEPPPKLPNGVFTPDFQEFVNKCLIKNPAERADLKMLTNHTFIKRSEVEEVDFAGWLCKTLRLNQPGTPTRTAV
Dual specificity mitogen-activated protein kinase kinase; MEK1/2 (Homo sapiens), sequence (P36507 whole entry, looked up): as the sequence (P36507 whole entry) above
Dual specificity mitogen-activated protein kinase kinase; MEK1/2 (Homo sapiens), sequence (Q02750 whole entry, looked up): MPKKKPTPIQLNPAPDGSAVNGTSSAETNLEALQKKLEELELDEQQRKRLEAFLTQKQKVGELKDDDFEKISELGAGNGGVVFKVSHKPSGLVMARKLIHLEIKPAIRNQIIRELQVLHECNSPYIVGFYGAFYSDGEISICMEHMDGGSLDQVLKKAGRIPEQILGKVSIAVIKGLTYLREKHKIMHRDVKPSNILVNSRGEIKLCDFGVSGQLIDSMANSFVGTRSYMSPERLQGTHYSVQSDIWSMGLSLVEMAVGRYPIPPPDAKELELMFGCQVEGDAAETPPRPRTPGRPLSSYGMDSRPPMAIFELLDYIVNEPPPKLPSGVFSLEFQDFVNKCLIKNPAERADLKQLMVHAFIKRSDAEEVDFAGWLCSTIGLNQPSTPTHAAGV
Epidermal growth factor receptor (Homo sapiens), P00533 [G719C], sequence (P00533 whole entry G719C): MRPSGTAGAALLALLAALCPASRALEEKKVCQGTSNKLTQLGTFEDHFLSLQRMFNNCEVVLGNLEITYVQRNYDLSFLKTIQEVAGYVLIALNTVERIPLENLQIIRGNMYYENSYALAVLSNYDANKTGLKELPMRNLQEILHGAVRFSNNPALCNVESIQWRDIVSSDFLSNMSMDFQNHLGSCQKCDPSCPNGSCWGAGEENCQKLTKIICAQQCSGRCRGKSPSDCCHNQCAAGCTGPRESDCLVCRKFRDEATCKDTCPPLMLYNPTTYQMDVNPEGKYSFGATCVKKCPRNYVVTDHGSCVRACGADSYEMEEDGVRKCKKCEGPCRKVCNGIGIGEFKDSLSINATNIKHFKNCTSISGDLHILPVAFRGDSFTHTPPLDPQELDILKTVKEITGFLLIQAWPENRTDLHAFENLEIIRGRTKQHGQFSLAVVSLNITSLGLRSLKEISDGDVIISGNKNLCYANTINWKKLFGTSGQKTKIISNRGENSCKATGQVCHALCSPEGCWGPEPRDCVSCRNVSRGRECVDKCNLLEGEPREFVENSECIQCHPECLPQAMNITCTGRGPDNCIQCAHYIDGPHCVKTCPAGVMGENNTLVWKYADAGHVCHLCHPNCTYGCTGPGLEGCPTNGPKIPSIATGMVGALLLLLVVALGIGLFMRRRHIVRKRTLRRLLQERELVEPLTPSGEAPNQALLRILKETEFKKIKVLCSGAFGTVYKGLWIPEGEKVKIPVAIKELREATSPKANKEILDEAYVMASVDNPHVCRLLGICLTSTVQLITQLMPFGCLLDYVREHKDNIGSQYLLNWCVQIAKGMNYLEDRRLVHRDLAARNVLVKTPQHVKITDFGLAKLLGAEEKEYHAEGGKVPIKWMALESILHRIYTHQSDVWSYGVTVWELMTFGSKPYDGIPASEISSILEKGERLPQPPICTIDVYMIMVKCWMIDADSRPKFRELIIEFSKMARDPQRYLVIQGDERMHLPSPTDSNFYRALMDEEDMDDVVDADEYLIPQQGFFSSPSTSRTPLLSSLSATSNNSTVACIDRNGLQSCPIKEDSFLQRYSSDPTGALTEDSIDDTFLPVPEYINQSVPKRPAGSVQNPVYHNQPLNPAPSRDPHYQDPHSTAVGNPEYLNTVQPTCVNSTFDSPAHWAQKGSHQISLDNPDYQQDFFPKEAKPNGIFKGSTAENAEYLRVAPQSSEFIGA
Tyrosine-protein kinase ABL (Homo sapiens), sequence (P00519 whole entry, looked up): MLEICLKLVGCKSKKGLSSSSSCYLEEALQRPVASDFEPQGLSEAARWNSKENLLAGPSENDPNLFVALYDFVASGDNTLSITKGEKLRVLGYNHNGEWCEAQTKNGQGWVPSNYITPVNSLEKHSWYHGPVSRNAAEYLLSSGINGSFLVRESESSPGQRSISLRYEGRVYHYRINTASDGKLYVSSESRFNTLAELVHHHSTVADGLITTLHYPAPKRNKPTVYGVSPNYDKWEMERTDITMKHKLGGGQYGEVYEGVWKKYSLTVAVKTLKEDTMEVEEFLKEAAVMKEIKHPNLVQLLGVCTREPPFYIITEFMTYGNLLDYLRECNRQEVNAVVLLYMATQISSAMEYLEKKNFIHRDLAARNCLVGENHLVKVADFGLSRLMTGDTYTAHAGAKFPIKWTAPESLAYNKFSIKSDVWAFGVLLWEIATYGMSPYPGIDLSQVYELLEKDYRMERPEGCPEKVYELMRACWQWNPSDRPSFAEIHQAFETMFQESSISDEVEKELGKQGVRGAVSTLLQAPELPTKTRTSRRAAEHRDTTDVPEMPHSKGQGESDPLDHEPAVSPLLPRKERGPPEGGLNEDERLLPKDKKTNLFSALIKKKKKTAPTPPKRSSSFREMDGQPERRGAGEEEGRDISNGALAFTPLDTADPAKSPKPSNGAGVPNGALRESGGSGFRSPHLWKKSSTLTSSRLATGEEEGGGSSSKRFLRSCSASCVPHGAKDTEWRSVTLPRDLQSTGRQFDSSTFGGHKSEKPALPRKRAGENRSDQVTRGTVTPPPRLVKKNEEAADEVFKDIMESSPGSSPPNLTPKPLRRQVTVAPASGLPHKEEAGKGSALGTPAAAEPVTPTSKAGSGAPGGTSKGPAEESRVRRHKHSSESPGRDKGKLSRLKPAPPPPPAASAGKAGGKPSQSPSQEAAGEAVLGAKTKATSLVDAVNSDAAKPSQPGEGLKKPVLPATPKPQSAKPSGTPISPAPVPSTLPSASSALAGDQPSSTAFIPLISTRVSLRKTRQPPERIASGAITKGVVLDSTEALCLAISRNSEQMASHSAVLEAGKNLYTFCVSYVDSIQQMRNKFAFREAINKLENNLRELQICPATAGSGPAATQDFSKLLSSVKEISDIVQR
Tyrosine-protein kinase ABL (Homo sapiens), sequence (P42684 whole entry, looked up): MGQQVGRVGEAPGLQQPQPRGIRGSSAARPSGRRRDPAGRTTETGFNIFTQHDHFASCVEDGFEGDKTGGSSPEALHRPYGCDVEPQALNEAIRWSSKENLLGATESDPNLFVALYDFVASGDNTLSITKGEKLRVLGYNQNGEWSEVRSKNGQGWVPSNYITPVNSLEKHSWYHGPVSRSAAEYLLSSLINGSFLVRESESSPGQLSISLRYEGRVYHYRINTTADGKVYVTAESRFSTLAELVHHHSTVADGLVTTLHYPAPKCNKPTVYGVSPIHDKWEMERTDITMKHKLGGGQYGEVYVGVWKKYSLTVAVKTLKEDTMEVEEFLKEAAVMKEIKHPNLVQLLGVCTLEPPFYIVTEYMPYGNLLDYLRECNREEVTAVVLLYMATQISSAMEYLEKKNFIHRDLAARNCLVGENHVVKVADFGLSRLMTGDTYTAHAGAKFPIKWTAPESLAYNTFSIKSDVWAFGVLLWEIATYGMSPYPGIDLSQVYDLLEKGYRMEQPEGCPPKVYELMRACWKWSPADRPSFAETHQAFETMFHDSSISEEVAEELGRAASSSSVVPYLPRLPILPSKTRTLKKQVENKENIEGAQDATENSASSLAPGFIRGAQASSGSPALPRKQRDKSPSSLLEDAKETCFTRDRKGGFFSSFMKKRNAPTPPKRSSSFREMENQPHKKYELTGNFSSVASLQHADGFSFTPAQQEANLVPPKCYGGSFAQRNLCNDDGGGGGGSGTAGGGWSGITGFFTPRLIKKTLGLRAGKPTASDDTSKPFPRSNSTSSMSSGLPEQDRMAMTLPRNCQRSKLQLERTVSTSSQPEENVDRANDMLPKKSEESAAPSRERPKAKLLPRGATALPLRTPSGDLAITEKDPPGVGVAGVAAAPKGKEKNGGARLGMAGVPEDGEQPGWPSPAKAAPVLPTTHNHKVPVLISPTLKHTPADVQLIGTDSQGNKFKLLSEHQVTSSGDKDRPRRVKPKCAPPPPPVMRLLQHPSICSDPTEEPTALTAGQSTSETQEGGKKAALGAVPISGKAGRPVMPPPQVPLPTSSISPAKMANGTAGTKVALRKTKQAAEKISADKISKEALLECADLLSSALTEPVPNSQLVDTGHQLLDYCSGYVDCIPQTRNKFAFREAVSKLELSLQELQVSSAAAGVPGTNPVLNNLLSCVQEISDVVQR
Mitogen-activated protein kinase 14, sequence (Q16539 whole entry): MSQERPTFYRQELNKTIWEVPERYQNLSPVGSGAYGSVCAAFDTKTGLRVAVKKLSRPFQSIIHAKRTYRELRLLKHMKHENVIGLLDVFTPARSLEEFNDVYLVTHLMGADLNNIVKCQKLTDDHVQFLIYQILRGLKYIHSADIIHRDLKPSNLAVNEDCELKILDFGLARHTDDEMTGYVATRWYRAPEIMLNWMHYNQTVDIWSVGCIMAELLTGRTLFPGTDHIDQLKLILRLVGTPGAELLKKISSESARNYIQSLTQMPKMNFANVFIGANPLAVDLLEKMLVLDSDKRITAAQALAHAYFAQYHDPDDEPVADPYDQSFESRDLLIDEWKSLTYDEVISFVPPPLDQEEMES

Usually inhibition stands for how much of the control response was suppressed. Read a low inhibition as little suppression. For the compound `CCN1CCN(Cc2ccc(NC(=O)c3ccc(C)c(/C=C/c4cnc5[nH]ccc5c4OC)c3)cc2C(F)(F)F)CC1`, the inhibition in experiment [1] is 0.45%; in experiment [2] it was 22%; in experiment [3], 23.7%. The residual activity in experiment [4] is 74%; in experiment [5], 50%; in experiment [6], 16%.
On to `CCN1CCN(Cc2ccc(NC(=O)c3ccc(C)c(Oc4ccnc5[nH]ccc45)c3)cc2C(F)(F)F)CC1`, for which the inhibition in experiment [7] stood at 4%; in experiment [8], 96%; in [9] it was 14.4%. The percent of control in [10] was found to be 0%.
